Assay results as given in patent US8791267B2, “Biaryl PDE4 inhibitors for treating inflammatory, cardiovascular and CNS disorders” (Decode Genetics EHF, priority 2007, dated 2014).
Structures can show the parent of a compound that is named as a salt.

Molecular target: PDE4 (Homo sapiens, UniProt Q08499)
Assay: In-vitro assay for PDE4 enzymes, real-time enzyme-coupled spectrophotometric assay (Table 9)
Format: biochemical
Conditions: human PDE4D; activity class, Table 9; read-out: hPDE4D

PDE4, sequence (Q08499 whole entry): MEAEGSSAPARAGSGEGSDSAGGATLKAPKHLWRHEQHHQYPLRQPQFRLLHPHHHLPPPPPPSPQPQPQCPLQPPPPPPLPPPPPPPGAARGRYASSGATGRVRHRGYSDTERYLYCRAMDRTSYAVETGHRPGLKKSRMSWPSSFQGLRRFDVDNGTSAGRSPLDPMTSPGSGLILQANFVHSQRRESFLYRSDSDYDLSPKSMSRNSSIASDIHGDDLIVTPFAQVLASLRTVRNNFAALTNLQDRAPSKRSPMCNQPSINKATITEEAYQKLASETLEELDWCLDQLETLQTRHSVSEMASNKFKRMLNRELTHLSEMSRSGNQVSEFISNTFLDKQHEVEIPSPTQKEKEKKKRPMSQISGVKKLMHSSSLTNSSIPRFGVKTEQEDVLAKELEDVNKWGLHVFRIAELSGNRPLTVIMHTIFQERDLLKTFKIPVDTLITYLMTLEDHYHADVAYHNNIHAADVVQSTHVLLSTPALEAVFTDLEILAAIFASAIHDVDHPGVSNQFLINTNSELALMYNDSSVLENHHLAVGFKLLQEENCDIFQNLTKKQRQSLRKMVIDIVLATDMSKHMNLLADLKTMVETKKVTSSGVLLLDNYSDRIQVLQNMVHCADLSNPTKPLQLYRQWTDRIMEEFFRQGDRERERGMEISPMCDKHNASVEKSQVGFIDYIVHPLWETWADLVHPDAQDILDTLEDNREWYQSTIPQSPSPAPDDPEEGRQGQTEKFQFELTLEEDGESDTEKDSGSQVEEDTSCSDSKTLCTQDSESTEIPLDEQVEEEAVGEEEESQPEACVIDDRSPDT

Row | Compound | IC50
1 | COc1ccc(Cc2ccc(N3CCOCC3)nc2)cc1-c1cccc(Cl)c1 [P-572, 4-[5-(3′-chloro-6-methoxy-biphenyl-3-ylmethyl)-pyridin-2-yl]-morpholine] | < 5 µM
2 | COc1ccc(Cc2ccc(N3[C@@H](C)CC[C@@H]3C)nc2)c(F)c1-c1cccc(Cl)c1 [P-577, 5-(3′-Chloro-2-fluoro-6-methoxy-biphenyl-3-ylmethyl)-2-((2S,5S)-2,5-dimethyl-pyrrolidin-1-yl)-pyridine] | < 5 µM
3 | COc1ccc(Cc2ccc(NC(C)=O)cc2)c(F)c1-c1cccc(N2CCOCC2)c1 [P-390, N-[4-(2-Fluoro-6-methoxy-3′-morpholin-4-yl-biphenyl-3-ylmethyl)-phenyl]-acetamide] | 5 to 20 µM
4 | NC(=O)COc1ccc(Cc2ccc(NC(N)=O)cc2)cc1-c1cccc(Cl)c1 [P-557, 2-[3′-Chloro-5-(4-ureido-benzyl)-biphenyl-2-yloxy]-acetamide] | < 5 µM
5 | CCNC(=O)Nc1ccc([S+]([O-])c2ccc(OC)c(-c3cccc(Cl)c3)c2)cc1 (centres unmarked) [P-449, 1-[4-(3′-Chloro-6-methoxy-biphenyl-3-sulfinyl)-phenyl]-3-ethyl urea] | < 5 µM
6 | COc1ccc(Cc2ccc(F)cc2)cc1-n1cc(-c2ccncc2)cn1 [P-389, 4-{1-[5-(4-Fluoro-benzyl)-2-methoxy-phenyl]-1H-pyrazol-4-yl}-pyridine] | 5 to 20 µM
7 | COc1ccc(Cc2ccc(N3CC[C@@H]3C(N)=O)nc2)c(F)c1-c1cccc(Cl)c1 [P-617, (R)-1-[5-(3′-chloro-2-fluoro-6methoxy-biphenyl-3-ylmethyl)-pyridin-2-yl]-azetidine-2-carboxylic acid amide] | < 5 µM
8 | COc1ccc(N(C)c2ccc(N)cc2)cc1-c1cccc(Cl)c1 [P-288, N-(3′-Chloro-6-methoxy-biphenyl-3-yl)-N-methyl-benzene-1,4-diamine; hydrochloride] | < 5 µM
9 | COc1ccc(COc2ccnc(N3CCCC3)c2)cc1-c1cccc(Cl)c1 [P-607] | < 5 µM
10 | COc1ccc(Cn2cc(-c3ccncn3)cn2)c(F)c1-c1cccc(Cl)c1 [P-546, 4-[1-(3′-Chloro-2-fluoro-6-methoxy-biphenyl-3-ylmethyl)-1H-pyrazol-4-yl]-pyrimidine hydrochloride salt] | < 5 µM
11 | COc1ccc(Cn2cnc3ccccc32)cc1-c1cccc([N+](=O)[O-])c1 [P-483, 1-(6-Methoxy-3′-nitro-biphenyl-3-ylmethyl)-1H-benzoimidazole] | < 5 µM
12 | COc1ccc(Cc2ccc(OCCN3CCOCC3)cc2)c(F)c1-c1cccc(Cl)c1 [P-219] | < 5 µM
13 | COc1ccc(Cc2nnc(N)o2)cc1-c1cccc(Cl)c1 [P-306, 5-(3′-Chloro-6-methoxy-biphenyl-3-ylmethyl)-[1,3,4]oxadiazol-2-ylamine] | 5 to 20 µM
14 | [2H]C(O)(c1ccc(NC(N)=O)cc1)c1ccc(OC)c(-c2cccc(Cl)c2)c1 (centres unmarked) [P-584] | 5 to 20 µM
15 | CCOc1ccc(Cc2ccc(NC(C)=O)cc2)c(F)c1-c1cccc(Br)c1 [P-322] | < 5 µM
16 | NC(=O)Nc1ccc(Cc2ccc(OCC3CCCO3)c(-c3cccc(Cl)c3)c2)cc1 (centres unmarked) [P-543, {4-[3′-Chloro-6-(tetrahydro-furan-2-ylmethoxy)-biphenyl-3-ylmethyl]-phenyl}-urea] | < 5 µM
17 | COc1ccc(Cc2ccc(F)cc2)cc1-n1ccc(C(F)(F)F)n1 [P-396, 1-[5-(4-Fluoro-benzyl)-2-methoxy-phenyl]-3-trifluoromethyl-1H-pyrazole] | < 5 µM
18 | COc1ccc(Cc2cccc(CNC(=O)OC(C)(C)C)c2)cc1-c1cccc([N+](=O)[O-])c1 [P-160, [3-(6-Methoxy-3′-nitro-biphenyl-3-ylmethyl)-benzyl]-carbamic acid tert-butyl ester] | 5 to 20 µM
19 | NC(=O)Nc1ccc(Cc2ccc(OC3CNC3)c(-c3cccc(Cl)c3)c2)cc1 [P-554, {4-[6-(Azetidin-3-yloxy)-3′-chloro-biphenyl-3-ylmethyl]-phenyl}-urea] | 5 to 20 µM
20 | COc1ccc(Cc2ccc(F)cc2)c(F)c1-c1cccc(Br)c1 [P-139] | < 5 µM
21 | COc1ccc(N(C)c2ccc(NC(N)=O)cc2)cc1-c1cccc(Cl)c1 [P-293, {4-[(3′-Chloro-6-methoxy-biphenyl-3-yl)-methyl-amino]-phenyl}-urea] | < 5 µM
22 | COc1ccc(CO)nc1-c1cccc([N+](=O)[O-])c1 [P-491, [5-methoxy-6-(3-nitro-phenyl)-pyridin-2-yl]-methanol] | 20 to 40 µM
23 | COc1ccc(Cn2cncn2)cc1-c1cccc([S+](C)[O-])c1 (centres unmarked) [P-169, 1-(3′-Methanesulfinyl-6-methoxy-biphenyl-3-ylmethyl)-1H-[1,2,4]triazole] | 5 to 20 µM
24 | COc1ccc(Cn2cc(-c3ccncc3)cn2)c(F)c1-c1cccc(Cl)c1 [P-528, 4-[1-(3′-Chloro-2-fluoro-6-methoxy-biphenyl-3-ylmethyl)-1H-pyrazol-4-yl]-pyridine] | < 5 µM
25 | COc1ccc(C(=O)c2ccc(NC(N)=O)cc2)c(F)c1-c1cccc(Cl)c1 [P-434, [4-(3′-chloro-2-fluoro-6-methoxy-biphenyl-3-carbonyl)-phenyl]-urea] | < 5 µM
26 | CCNC(=O)N1CCN(c2ccc(Cc3ccc(OC)c(-c4cccc(Cl)c4)c3F)cn2)CC1 [P-514, 4-[5-(3′-chloro-2-fluoro-6-methoxy-biphenyl-3-ylmethyl)-pyridin-2-yl]-piperazine-1-carboxylic acid ethylamide hydrochloride] | < 5 µM
27 | COc1ccc(COc2ccc(NC(C)=O)cc2)c(F)c1-c1cccc(Br)c1 [P-194] | < 5 µM

Row | Compound | IC50
28 | COc1ccc(Cc2ccc(N(C)C)cc2)cc1-c1cccc(Cl)c1 [P-241, [4-(3′-Chloro-6-methoxy-biphenyl-3-ylmethyl)-phenyl]-dimethyl-amine] | < 5 µM
29 | COc1ccc(C(=O)c2ccc(N)cc2)cc1-c1ccc(F)c(F)c1 [P-580] | < 5 µM
30 | COc1ccc(Cc2ccc(Nc3nccs3)cc2)cc1-c1cccc(Cl)c1 [P-454, [4-(3′-Chloro-6-methoxy-biphenyl-3-ylmethyl)-phenyl]-thiazol-2-yl-amine] | < 5 µM
31 | CNCC(=O)Nc1ccc(Cc2ccc(OC)c(-c3cccc(Cl)c3)c2F)cc1 [P-289] | < 5 µM
32 | COc1ccc(Nc2ccc(NC(N)=O)cc2)cc1-c1cccc(Cl)c1 [P-294, [4-(3′-Chloro-6-methoxy-biphenyl-3-ylamino)-phenyl]-urea] | < 5 µM
33 | COc1ccc(Cc2ccc(N3CCOCC3)nc2)c(F)c1-c1cccc(Cl)c1 [P-377] | < 5 µM
34 | COc1ccc(Cc2ccc(N3CCNCC3)nc2)c(F)c1-c1cccc(Cl)c1 [P-423, 1-[5-(3′-chloro-2-fluoro-6-methoxy-biphenyl-3-ylmethyl)-pyridin-2-yl]-piperazine] | 5 to 20 µM
35 | COc1ccc(COc2cccc(NC(C)=O)c2)c(F)c1-c1cccc(Cl)c1 [P-231] | < 5 µM
36 | COc1ccc(Cc2ccc(F)cc2)cc1-c1cccnc1 [P-474, 3-[5-(4-Fluoro-benzyl)-2-methoxy-phenyl]-pyridine] | < 5 µM
37 | COc1ccc(Cc2ccc(F)cc2)cc1-c1cccc(N2CCOCC2)c1 [P-385, 4-[5′-(4-Fluoro-benzyl)-2′-methoxy-biphenyl-3-yl]-morpholine] | 5 to 20 µM
38 | COc1ccc(Cc2ccc(N3CCC(O)C3)nc2)c(F)c1-c1cccc(Cl)c1 (centres unmarked) [P-601, 1-[5-(3′-chloro-2-fluoro-6-methoxy-biphenyl-3-ylmethyl)-pyridin-2-yl]-pyrrolidin-3-ol] | < 5 µM
39 | COc1ccc(Cc2cccc(NC(C)=O)c2)cc1-c1cccc(Cl)c1 [P-477, N-[3-(3′-Chloro-6-methoxy-biphenyl-3-ylmethyl)-phenyl]-acetamide] | < 5 µM
40 | COc1ccc(Cn2cncn2)cc1-c1cccc(S(C)(=O)=O)c1 [P-495, 1-(3′-Methanesulfonyl-6-methoxy-biphenyl-3-ylmethyl)-1H-[1,2,4]triazole] | 20 to 40 µM
41 | COc1ccc(Cc2ccc(N(C)C)cc2)c(F)c1-c1cccc(C(C)=O)c1 [P-326, 1-[3′-(4-Dimethylamino-benzyl)-2′-fluoro-6′-methoxy-biphenyl-3-yl]-ethanone] | < 5 µM
42 | COc1ccc(Cc2ccc(N3CCC(O)C3)nc2)cc1-c1cccc(Cl)c1 (centres unmarked) [P-602, 1-[5-(3′-chloro-6-methoxy-biphenyl-3-ylmethyl)-pyridin-2-yl]-pyrrolidin-3-ol] | < 5 µM
43 | COc1ccc(Cc2ccc(N3CC[C@H]3C(N)=O)nc2)c(F)c1-c1cccc(Cl)c1 [P-615, (S)-1-[5-(3′-chloro-2-fluoro-6methoxy-biphenyl-3-ylmethyl)-pyridin-2-yl]-azetidine-2-carboxylic acid amide] | < 5 µM
44 | COc1ccc(Cc2ccc(N(C)CC(N)=O)nc2)c(F)c1-c1cccc(Cl)c1 [P-622, 2-{[5-(3′-Chloro-2-fluoro-6-methoxy-biphenyl-3-ylmethyl)-pyridin-2-yl]-methyl-amino}-acetamide] | < 5 µM
45 | COc1ccc(Cc2ccc(F)cc2)cc1-c1cccc(Cl)n1 [P-391, 2-Chloro-6-[5-(4-fluoro-benzyl)-2-methoxy-phenyl]-pyridine] | < 5 µM
46 | COc1ccc(Cn2cncn2)cc1-c1ccc2[nH]ccc2c1 [P-486, 5-(2-Methoxy-5-[1,2,4]triazol-1-ylmethyl-phenyl)-1H-indole] | 20 to 40 µM
47 | COc1ccc(COc2ccc(Br)cn2)c(F)c1-c1cccc(Cl)c1 [P-574] | < 5 µM
48 | COc1ccc(C(=O)c2ccc(N)cc2)cc1-c1cccc(Cl)c1 [P-558, (4-amino-phenyl)-(3′-chloro-6-methoxy-biphenyl-3-yl)-methanone] | < 5 µM
49 | COc1ccc(Cc2ccc(N(C)C)cc2)c(O)c1-c1cccc([N+](=O)[O-])c1 [P-157, 3-(4-Dimethylamino-benzyl)-6-methoxy-3′-nitro-biphenyl-2-ol] | < 5 µM
50 | COc1ccc(Cc2ccc(NC(=O)CN)cc2)c(F)c1-c1cccc(Cl)c1 [P-273] | < 5 µM
51 | [2H]C(O)(c1ccc([N+](=O)[O-])cc1)c1ccc(OC)c(-c2cccc(Cl)c2)c1F (centres unmarked) [P-537, deutero-(3′-chloro-2-fluoro-6-methoxy-biphenyl-3-yl)-(4-nitro-phenyl)-methanol] | < 5 µM
52 | COc1ccc(Cc2ccc(NC(=O)CN(C)C)cc2)c(F)c1-c1cccc(Cl)c1 [P-238, N-[4-(3′-chloro-2-fluoro-6-methoxy-biphenyl-3-ylmethyl)-phenyl]-2-dimethylamino-acetamide] | < 5 µM
53 | COc1ccc(CO)c(O)c1-c1cccc([N+](=O)[O-])c1 [P-149] | < 5 µM
